Reference: article PMC3006429 (PLoS ONE, 2010)
Where “and” joins values, the source holds several entries; their conditions need not be identical. Equal entries are not always repeated. Where two headings read alike, the source gives them in different places.

What was measured:
FMDV 3Dpol [1] = target: T1, FMDV 3Dpol (Foot-and-mouth disease virus, UniProt P03311); experiment: biochemical; conditions: IC50 of 3Dpol inhibition (gel-based)
[2] = target: Klenow Fragment (KF) of E. coli DNA polymerase I (Escherichia coli, UniProt P00582); type: biochemical
Klenow Fragment (KF) of E. coli DNA polymerase I, sequence (P00582 324-928): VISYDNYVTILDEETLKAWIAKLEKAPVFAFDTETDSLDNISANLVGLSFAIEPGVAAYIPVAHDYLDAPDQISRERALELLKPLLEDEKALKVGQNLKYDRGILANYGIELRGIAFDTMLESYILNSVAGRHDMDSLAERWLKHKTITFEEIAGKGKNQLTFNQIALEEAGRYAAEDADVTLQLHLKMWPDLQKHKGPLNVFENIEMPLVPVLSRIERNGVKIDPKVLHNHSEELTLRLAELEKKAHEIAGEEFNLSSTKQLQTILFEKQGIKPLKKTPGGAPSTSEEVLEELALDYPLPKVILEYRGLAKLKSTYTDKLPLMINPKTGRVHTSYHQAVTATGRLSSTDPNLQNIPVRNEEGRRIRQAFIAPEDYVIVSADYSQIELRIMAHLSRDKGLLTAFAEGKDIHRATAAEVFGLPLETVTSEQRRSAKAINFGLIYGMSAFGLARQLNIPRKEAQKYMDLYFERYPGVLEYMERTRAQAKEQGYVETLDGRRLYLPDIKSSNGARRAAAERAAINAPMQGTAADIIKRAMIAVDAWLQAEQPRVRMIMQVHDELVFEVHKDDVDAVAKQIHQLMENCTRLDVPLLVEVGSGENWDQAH

WT 3Dpol = WT 3Dpol (Foot-and-mouth disease virus, UniProt P03311); experiment: biochemical; conditions: IC50 (filter binding assay)
WT 3Dpol, sequence (P03311 1858-2327 limits assumed): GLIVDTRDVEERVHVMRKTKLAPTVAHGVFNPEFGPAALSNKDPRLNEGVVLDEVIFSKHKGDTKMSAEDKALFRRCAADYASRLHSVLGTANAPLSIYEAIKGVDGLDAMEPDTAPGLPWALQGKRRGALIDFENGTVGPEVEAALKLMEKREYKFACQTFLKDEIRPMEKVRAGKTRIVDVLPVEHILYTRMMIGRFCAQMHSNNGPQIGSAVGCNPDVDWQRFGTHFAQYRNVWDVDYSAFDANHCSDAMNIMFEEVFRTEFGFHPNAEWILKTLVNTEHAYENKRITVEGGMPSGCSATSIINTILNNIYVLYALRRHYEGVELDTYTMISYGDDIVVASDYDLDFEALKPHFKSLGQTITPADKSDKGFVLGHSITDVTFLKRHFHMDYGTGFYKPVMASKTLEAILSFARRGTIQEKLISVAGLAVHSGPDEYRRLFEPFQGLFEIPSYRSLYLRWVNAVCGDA

[3] = target: HIV-1 reverse transcriptase (HIV-1 RT) (Human immunodeficiency virus type 1 group M subtype B, UniProt P03366); type: biochemical
FMDV = conditions: cited from earlier work; for EC50: read-out: EC50 (FMDV replication in cell cultures); for EC90: read-out: EC90 (FMDV replication in cell cultures)
in vitro = conditions: hamster
FMDV 3Dpol [4] = target: T1, FMDV 3Dpol; experiment: biochemical; type: biochemical
FMDV A24 Cruzeiro = experiment: microbe, parasite or virus in culture; type: cell-based, Foot-and-Mouth Disease Virus
FMDV 3Dpol [5] = target: T1, FMDV 3Dpol; experiment: biochemical

T1 sequence (P03311 1858-2327 limits assumed): as above

| SMILES | IC50 (FMDV 3Dpol [1]) | inhibition of KF polymerase activity [2] | inhibition of HIV-1 RT polymerase activity [3] | CC50 (in vitro) [µM] | also measured |
| --- | --- | --- | --- | --- | --- |
| O=[N+]([O-])c1ccc(Sc2ccc(Cl)cc2Cl)c2nonc12 [1A8] | 17.8 µM | No significant inhibition | No significant inhibition | – | IC50 (WT 3Dpol): 17.4 µM and 17.8 µM |
| C[C@@]1(O)[C@H](O)[C@@H](CO)O[C@H]1n1ccc(N)nc1=O [2′-C-methylcytidine] | – | – | – | – | EC50 (FMDV): 10 µM; EC90 (FMDV): 15 µM |
| N#CC(C(=O)Nc1cccc(C(F)(F)F)c1)C(=S)Nc1ccccc1Cl (centres unmarked) [3A11] | ~2 µM and 2 µM | – | – | 70 | – |
| O=C(Sc1cccs1)c1cncc(C#Cc2ccccc2)c1 [4H6] | 8 µM | No significant inhibition | No significant inhibition | > 100 | – |
| O=S(=O)(NNc1ncnc2sccc12)c1ccc(Cl)cc1 [5D9] | 12 µM | No significant inhibition | No significant inhibition | > 100 | Ki (FMDV 3Dpol [4]): 9.4 ± 2.5 µM; kinetic mechanism of inhibition (FMDV 3Dpol [4]): non-competitive; antiviral potency relative to ribavirin (FMDV A24 Cruzeiro): ~80 fold; inhibition of viral replication (FMDV A24 Cruzeiro): inhibition of viral replication; EC50 (FMDV A24 Cruzeiro; Foot-and-mouth disease virus, BHK-21, 24 h, read-out: EC50 (virus production in FMDV-infected cells)): 12 µM; EC90 (FMDV A24 Cruzeiro; Foot-and-mouth disease virus, BHK-21, 24 h, read-out: EC90 (virus production in FMDV-infected cells)): 20 µM; inhibition at 20 µM (FMDV A24 Cruzeiro; Foot-and-mouth disease virus, BHK-21, read-out: inhibition of virus replication): 90% |
| O=S1(=O)C=C(CSc2cccs2)c2cc(Cl)ccc21 [7F8] | 10 µM | No significant inhibition | No significant inhibition | > 100 | kinetic mechanism of inhibition (FMDV 3Dpol [4]): non-competitive |
| O=C1C(Cl)=C(Sc2ccccc2Br)C(=O)c2ccccc21 [8C5] | 5.4 µM | No significant inhibition | No significant inhibition | 55 | IC50 (WT 3Dpol): 5.4 µM; inhibition of viral replication (FMDV A24 Cruzeiro): inhibition of viral replication |
| CCOC(=O)/C(=N\Nc1ccc(Br)cc1)C(=O)CSC#N [9A3] | 10 µM | No significant inhibition | No significant inhibition | > 100 | – |
| Cc1cn([C@@H]2O[C@H](COP(=O)(O)OP(=O)(O)OP(=O)(O)O)C[C@H]2O)c(=O)[nH]c1=O [DMUT, 3′-deoxy-5-methyl uridine triphosphate] | – | – | – | – | IC50 (FMDV 3Dpol [5]): 0.68 µM |
| NC(=O)c1ncn([C@@H]2O[C@H](CO)[C@@H](O)[C@H]2O)n1 [ribavirin] | – | – | – | – | EC50 (FMDV): 970 µM; EC90 (FMDV): 1700 µM |
